US11304926B2, “Application of transient receptor potential cation channel TRPV3 in developing drug for preventing or treating psoriasis” (CHINA PHARMACEUTICAL UNIVERSITY, priority 2019, dated 2022)
Entries after “also recorded” stand apart in the source; their conditions may differ.

Key:
[1] = test system: mouse psoriasis model induced by 5% IMQ; assay: Neutrophil infiltration (Ly6G+ cells, immunofluorescence) of mouse psoriasis model; type: in vivo; conditions: 5% IMQ model
[2] = biological target: T1, mTRPV3 (Mus musculus, UniProt Q8K424); assay: Whole-cell patch clamp of 2-APB induced current in mTRPV3-HEK-293 cells; type: cell-based
T1 construct: expressed in transfected cells
T1 sequence (Q8K424 1-791): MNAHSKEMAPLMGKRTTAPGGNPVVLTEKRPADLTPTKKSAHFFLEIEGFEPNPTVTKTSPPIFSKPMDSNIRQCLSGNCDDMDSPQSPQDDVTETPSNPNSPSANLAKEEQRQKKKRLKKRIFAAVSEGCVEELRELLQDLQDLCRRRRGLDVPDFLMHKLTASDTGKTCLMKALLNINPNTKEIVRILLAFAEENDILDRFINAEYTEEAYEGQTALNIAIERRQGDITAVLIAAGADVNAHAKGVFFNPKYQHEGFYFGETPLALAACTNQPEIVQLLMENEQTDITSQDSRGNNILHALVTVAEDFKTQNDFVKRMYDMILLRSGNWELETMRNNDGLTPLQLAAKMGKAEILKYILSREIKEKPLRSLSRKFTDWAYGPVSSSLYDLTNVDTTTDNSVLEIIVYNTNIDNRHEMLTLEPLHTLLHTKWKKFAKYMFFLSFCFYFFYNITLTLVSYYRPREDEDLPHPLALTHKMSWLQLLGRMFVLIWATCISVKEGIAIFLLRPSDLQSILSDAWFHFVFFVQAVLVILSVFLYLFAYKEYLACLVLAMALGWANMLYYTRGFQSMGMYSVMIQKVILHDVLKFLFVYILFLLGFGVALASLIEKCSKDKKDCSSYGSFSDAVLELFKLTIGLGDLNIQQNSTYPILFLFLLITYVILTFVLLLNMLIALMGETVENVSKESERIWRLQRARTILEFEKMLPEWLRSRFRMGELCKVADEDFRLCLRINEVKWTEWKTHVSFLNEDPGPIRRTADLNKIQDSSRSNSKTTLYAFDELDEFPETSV
Protocol: mTRPV3 plasmids were donated by Professor Jie Zheng from UC Davis. Transfection steps were as follows: HEK-293 cells with a confluence ranging from 70% to 80% and a good growth state were seeded into T-60 small dishes the day before transfection, each small dish contained 4×10^5 cells, and the cells were cultured without penicillin/streptomycin overnight at 37° C. in 5% CO2. 10 μL of plasmids (plasmid concentration was 1000 ng/μL) were diluted with 250 μl of DMEM (article number: 12800017, Gibco), and meanwhile, 10 μL of Lipofectamine 2000 (article number: 11668027, Gibco) was diluted into 250 μL of DMEM. […] Monoclone cells were selected by a limiting dilution method: the screened cells were digested and counted, and seeded into a 96-well plate in sequence at densities of 10^4 cells/well, 10^3 cells/well, 10^2 cells/well, 10 cells/well, and 1 cell/well. Under a fluorescence microscope, wells of separate cells with green fluorescence were labeled, and cells amplified from the wells were HEK-293 cells stably transfecting the mTRPV3. […] HEK-293 cells stably transecting mTRPV3 (mTRPV3-HEK-293) were seeded into T-60 small dishes with a confluence ranging from 20% to 30%, and whole cell current was recorded by a patch clamp amplification system next day. […]

IC50 ([2]; whole-cell patch clamp, mTRPV3-HEK-293, 2-APB 100 μM, nonlinear fitting): 1010 nM
SMILES: O=c1cc(-c2ccc(O)cc2)oc2cc(O)c(O)c(O)c12 [Scutellarein]
neutrophil infiltration [1]: obviously reduce | inhibition of whole-cell current induced by 2-APB ([2]; Scutellarein 0.3-30 μM, 2-APB 100 μM, mTRPV3-HEK-293): could inhibit the whole-cell current induced by the 2-APB and had a dose dependence; also recorded: obvious inhibitory effect
